Measured values taken from publication PMC8838991, “Exploring the Synergistic Anticancer Potential of Benzofuran–Oxadiazoles and Triazoles: Improved Ultrasound- and Microwave-Assisted Synthesis, Molecular Docking, Hemolytic, Thrombolytic and Anticancer Evaluation of Furan-Based Molecules” (Molecules, 2022).
Where “and” joins values, the source holds several entries; their conditions need not be identical. Equal entries are not always repeated.

Experiments:
[1] = system: A549 lung cancer cell line; assay: MTT assay, cell viability; format: cell-based, human; details: A549, 48 h, mean ± SD in triplicate
Procedure: The A549 cell line was treated with synthesized compounds in a final concentration of DMSO (dimethyl sulfoxide) of less than 1%.
The cytotoxic therapeutic potential of synthesized structural hybrids was evaluated usinga standard MTT (3-(4,5-dimethylthiazol-2-yl)-2,5-diphenyltetrazolium bromide) assay. The cells of theA549 cell line were grown, overnight, in a microculture of 96-well plates. […] Following this, 150 μL of control DMSO was added to formazan crystals.The percentage of cell viability was determined viaquantified absorbance in a microplate readerat 490 nm wavelength.

blood clot = assay: Thrombolysis assay (clot lysis); parameters: species or system human; details: sample solution in DMSO, 3 h at 37 °C, ABTS positive control, triplicate
Procedure: The thrombolytic assay was performedaccording tomethodologyin the literature. A blood sample (3 mL) was collected from a healthy human donor, and 500 µL was transferred to pre-weighed, clean Eppendorf tubes. The tubes containing the blood wereweighed again andincubatedfor 1 h at 37 °C to induce clot formation. The serum was then discarded, and the tube containing theclot was weighed. An amount of 40 µL of sample solution in DMSO was added to the clot.The tubes were again incubated for 3 h at 37 °C, and the lysis resultswere observed. ABTS was used as a positivecontrol, while DMSO was used as a negative control in this assay. The experiment was performed in triplicate, and the lysis percentage was calculated using the formula below: % Age clot lysis =Initial clot weight−Final clot weight ×100/Initial clot weight

Hemolysis assay = format: cell-based; details: human, red blood cells (washed RBC pellet); read-out: Percentage Hemolysis ± SD
Procedure: A fresh blood sample (5 mL) from a healthy donor was collected in an EDTA tube. The blood was transferred to microcentrifuge tubes and centrifugedfor 5 min at 1000 rpm to obtain the red blood cells (RBCs). The supernatant was then discarded, and the RBCpellet was washed three times with phosphate-buffered saline (PBS). The RBC pellet was collected after washing and 20µL of sample solution in DMSO was added. The tubes were incubated at 37 °C for 60 min. Having been removed from the incubator, the tubes were recentrifuged at 13,000 rpm for 5 min. The supernatant was collected and diluted with chilled PBS solution. Absorbance was recordedat 517 nm. […] The experiment wasconducted in triplicate, and the RBC lysis percentage was calculated using this formula [40]: % Age hemolysis =Absorbance of sample−Absorbance of negative control ×100/Absorbance of positive control

## CCN(CC)C(=O)CSc1nnc(-c2cc3ccccc3o2)o1 [Compound 5g]
other
  melting point: 96 to 97 °C
[1]
  Percentage Cell viability A549 (Lung Cancer) ± SD: 41.45 ± 4.10%
Blood clot
  Percentage Thrombolysis ± SD: 48.3% and 48.3 ± 0.081%
Hemolysis assay
  hemolysis at 60 min: 4.86 ± 0.047%

## Cc1ccc(NC(=O)CSc2nnc(-c3cc4ccccc4o3)n2-c2ccccc2)c(C)c1 [Compound 7f]
other
  melting point: 226 to 227 °C
[1]
  Percentage Cell viability A549 (Lung Cancer) ± SD: 99.1 ± 5.04%
Blood clot
  Percentage Thrombolysis ± SD: 61.4% and 61.4 ± 0.081%
Hemolysis assay
  hemolysis at 60 min: 15.7 ± 0.081%

## CCOc1ccc(NC(=O)CSc2nnc(-c3cc4ccccc4o3)o2)cc1 [Compound 5e]
other
  melting point: 154 to 156 °C
[1]
  Percentage Cell viability A549 (Lung Cancer) ± SD: 34.47 ± 2.19%
[1]; Homo sapiens
  IC50: 17.9 ± 0.46 µM
Blood clot
  Percentage Thrombolysis ± SD: 52.4% and 52.4 ± 0.081%
Hemolysis assay
  hemolysis at 60 min: 0.5 ± 0.008%

## O=C(CSc1nnc(-c2cc3ccccc3o2)o1)Nc1ccccc1 [Compound 5a]
other
  melting point: 212 to 214 °C
[1]
  Percentage Cell viability A549 (Lung Cancer) ± SD: 64.1 ± 1.72%
Blood clot
  Percentage Thrombolysis ± SD: 56.8% and 56.8 ± 0.081%
Hemolysis assay
  hemolysis at 60 min: 3.7 ± 0.008%

## COc1ccccc1NC(=O)CSc1nnc(-c2cc3ccccc3o2)o1 [Compound 5d]
other
  melting point: 176 to 178 °C
[1]
  Percentage Cell viability A549 (Lung Cancer) ± SD: 27.49 ± 1.90%
[1]; Homo sapiens
  IC50: 6.3 ± 0.7 µM
Blood clot
  Percentage Thrombolysis ± SD: 53.5% and 53.5 ± 0.081%
Hemolysis assay
  hemolysis at 60 min: 5.02 ± 0.008%

## O=C(CSc1nnc(-c2cc3ccccc3o2)n1-c1ccccc1)N1CCOCC1 [Compound 7b]
other
  melting point: 173 to 175 °C
[1]
  Percentage Cell viability A549 (Lung Cancer) ± SD: 57.62 ± 4.94%
Blood clot
  Percentage Thrombolysis ± SD: 52.5% and 52.5 ± 0.081%
Hemolysis assay
  hemolysis at 60 min: 0.1 ± 0.004%

## O=C(CSc1nnc(-c2cc3ccccc3o2)o1)N1CCOCC1 [Compound 5b]
other
  melting point: 181 to 182 °C
[1]
  Percentage Cell viability A549 (Lung Cancer) ± SD: 45.99 ± 4.22%
Blood clot
  Percentage Thrombolysis ± SD: 50.7% and 50.7 ± 0.081%
Hemolysis assay
  hemolysis at 60 min: 22.12 ± 0.008%

## N.N.[Cl][Pt][Cl] [Cisplatin, cisplatin, reference compound]
[1]
  IC50: 3.88 ± 0.76 µM

## C[C@@H](Oc1cc(-c2cnn(C3CCNCC3)c2)cnc1N)c1c(Cl)ccc(F)c1Cl [Crizotinib, crizotinib, reference compound]
[1]; Homo sapiens
  IC50: 8.54 ± 0.84 µM

## CCn1c(=NN=c2sc3cc(S(=O)(=O)O)ccc3n2CC)sc2cc(S(=O)(=O)O)ccc21 [ABTS, reference compound]
Blood clot
  Percentage Thrombolysis ± SD: 86%

## O=C(CSc1nnc(-c2cc3ccccc3o2)n1-c1ccccc1)Nc1ccc(Cl)cc1Cl [Compound 7h]
other
  melting point: 217 to 219 °C
[1]
  Percentage Cell viability A549 (Lung Cancer) ± SD: 29.29 ± 3.98%
[1]; Homo sapiens
  IC50: 10.9 ± 0.94 µM
Blood clot
  Percentage Thrombolysis ± SD: 48.1% and 48.1 ± 0.081%
Hemolysis assay
  hemolysis at 60 min: 14.8 ± 0.081%

## O=C(CSc1nnc(-c2cc3ccccc3o2)n1-c1ccccc1)Nc1ccc(Cl)cc1 [Compound 7g]
other
  melting point: 229 to 230 °C
[1]
  Percentage Cell viability A549 (Lung Cancer) ± SD: 36.26 ± 0.41%
[1]; Homo sapiens
  IC50: 19.8 ± 0.54 µM
Blood clot
  Percentage Thrombolysis ± SD: 49.06% and 49.06 ± 0.047%
Hemolysis assay
  hemolysis at 60 min: 23.4 ± 0.081%
